How the values were obtained:
[1] = test system: dHL60 cells; test: Cell Titer Glo 2.0 cytotoxicity (ATP) assay in PMA-stimulated dHL60 cells; type: cell-based, human
Protocol: The cytotoxicity of the inhibitors was tested by measuring the amount of ATP in the wells containing PMA-stimulated dHL60 cells and the candidate inhibitors. Cells were prepared as described for the plate reader-based measurements for H2O2, except that the cells were maintained with the inhibitors in a CO2-free incubator at 37 °C for 2.5 h to mirror the conditions during the fluorescence-based monitoring of H2O2 described above. After incubation, cells (100 µL/well) were transferred to white 96-well plates (Greiner, Kremsmünster, Austria), and the total cellular ATP amount was determined using the Cell Titer Glo 2.0 (Promega) cytotoxicity assay (100 µL/well) by measuring the luminescence intensity using a Beckman Coulter DTX880 plate reader.

[2] = target: T1, Nox2 (Homo sapiens, UniProt P04839); test: Seahorse XFe96 oxygen consumption in dHL60 cells before and after PMA; type: cell-based
T1 construct: endogenous in cells
T1 sequence (P04839 2-570 limits assumed): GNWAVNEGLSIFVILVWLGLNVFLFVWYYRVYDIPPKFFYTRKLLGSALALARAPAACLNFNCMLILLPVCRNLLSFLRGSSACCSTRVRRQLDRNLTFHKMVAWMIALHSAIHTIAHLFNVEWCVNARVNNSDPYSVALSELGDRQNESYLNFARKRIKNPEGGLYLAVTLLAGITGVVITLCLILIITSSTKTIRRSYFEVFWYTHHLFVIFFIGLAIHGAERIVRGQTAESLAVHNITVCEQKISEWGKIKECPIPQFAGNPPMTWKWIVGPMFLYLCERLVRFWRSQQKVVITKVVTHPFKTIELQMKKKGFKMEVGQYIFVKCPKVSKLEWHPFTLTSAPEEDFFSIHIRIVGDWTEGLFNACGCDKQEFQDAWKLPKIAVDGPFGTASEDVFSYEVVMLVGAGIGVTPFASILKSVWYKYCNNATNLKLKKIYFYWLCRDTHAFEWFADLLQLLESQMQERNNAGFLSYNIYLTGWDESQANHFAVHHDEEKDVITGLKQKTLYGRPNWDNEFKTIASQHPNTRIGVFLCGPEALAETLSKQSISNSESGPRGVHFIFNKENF
T1 sequence (P13498 2-195 partner limits assumed): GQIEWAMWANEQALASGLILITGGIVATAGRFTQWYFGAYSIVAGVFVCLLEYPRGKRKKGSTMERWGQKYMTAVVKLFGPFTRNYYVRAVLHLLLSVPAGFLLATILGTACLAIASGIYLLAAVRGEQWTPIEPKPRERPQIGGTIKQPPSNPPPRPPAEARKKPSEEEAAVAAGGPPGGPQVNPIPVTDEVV
Protocol: Oxygen consumption in dHL60 cells was monitored before and after the sequential addition of the candidate Nox inhibitors and PMA using a Seahorse XFe96 extracellular flux analyzer (Agilent Technologies, Santa Clara, CA, USA). The cell suspension was prepared in phenol red-free RPMI medium (without bicarbonate) and aliquoted (80 µL/well) into a 96-well plate to obtain a final cell number of 2 × 10^4 cells/well. Cells were spun down and an additional amount of RPMI medium (100 µL/well) was added gently so as not to disturb the cells at the bottom of the wells. The solutions for injections were prepared 10× concentrated, loaded into the injection ports of the Seahorse XFe96 cartridge, and the volumes injected were 20 µL and 22.2 µL for the compounds tested and PMA, respectively. The oxygen consumption rates were monitored for 30 min before injection (baseline respiration rate), 60 min after injection of different concentrations of the candidate Nox inhibitors, and 2 h after injection of PMA (final concentration: 1 µM). Increases in OCR values after PMA injection were used as a measure of Nox2 activity.

[3] = Plasma and brain pharmacokinetics in Sprague Dawley rats; type: in vivo
Protocol: (§1) Blood samples were collected into labeled microtubes containing dipotassium EDTA solution (20%) as an anticoagulant. Plasma was immediately harvested from the blood by centrifugation at 4000 rpm for 10 min at 4 ± 2 °C and stored below −70 °C until bioanalysis. After isolation, brain tissue samples were rinsed three times in ice cold normal saline (for 5–10 s/rinse using ~5–10 mL normal saline in disposable petri dishes for each rinse) and dried on blotting paper. Tissue samples were homogenized using ice-cold phosphate-buffered saline (pH 7.4). The total homogenate volume (µL) was three times the tissue weight (mg). All homogenates were stored below −70 ± 10 °C until bioanalysis. Concentrations of TG15-132 in plasma and brain samples were determined by fit-for-purpose liquid chromatography with the tandem mass spectrometry method (Sai-Life, Hyderabad, India). Phoenix WinNonlin (version 8.0, Certara, Princeton, NJ, USA) was used to analyze the pharmacokinetic parameters.
(§2) Rapid metabolism and the inability to cross the BBB represent major obstacles in the application of bioactive agents in neurodegenerative diseases. Based on the premise that Nox2 plays a major role in oxidative damage and exacerbates neurodegenerative diseases, we envision applications of brain-permeable Nox2 inhibitors in mechanistic studies in vivo, and, long-term, in the development of novel therapeutic strategies. Therefore, we performed in vivo pharmacokinetics studies to determine the time profile of plasma concentration and accumulation of TG15-132 in the brain tissue of Sprague Dawley rats and C57BL6 mice.

[4] = Plasma and brain pharmacokinetics in C57BL/6 mice; type: in vivo; settings: male, C57BL/6, mouse, ip, C57BL6 mice, single dose 20 mg/kg i.p.
Protocol: TG15-132 at a 20 mg/kg dose in a vehicle formulation of 10% DMSO, 50% PEG400, and 40% reversed osmosis-purified water (v/v) was administered to healthy male C57BL/6 mice weighing an average of 27 g by intraperitoneal (i.p.) injection. Blood samples (approximately 60 μL) were collected from the retro-orbital plexus of three animals at times 0.08, 0.25, 0.5, 1, 2, 4, 8, and 24 h after compound administration. Along with the terminal blood samples, the brain samples were also collected at the time points 0.25, 0.5, 2.0, 4.0, 8.0, and 24 h.
as §1

[5] = In vivo pharmacokinetics / brain penetration, species not specified (rodent models); settings: rat, intraperitoneal, 20 mg/kg, rodent models
Excerpt: as §2

Structure (SMILES): CN(C)CCCn1c(SCCc2c[nH]c3ccccc23)nc2ccc(F)cc2c1=O [TG15-132]
- IC50 ([1]; Homo sapiens, Cell Titer Glo 2.0, PMA-stimulated dHL60 cells, 2.5 h with inhibitor, unit not printed in Table 3, taken from text, read-out: IC50, Viability Assay): 34.5 ± 6 µM
- cell viability at concentrations showing Nox2 inhibitory potency ([1]; dHL60 cells, Figure 3D,E): no decrease in cell viability
- basal respiration (OCR) ([2]; 1 h after compound injection, before PMA, concentrations that inhibit PMA-induced OCR): no inhibition of basal respiration
- PMA-induced OCR ([2]; PMA 1 µM after 1 h compound): significant inhibition of PMA-induced OCR
- Kp at 8 h ([3]; rat, brain, ip, 20 mg/kg i.p., up to 8 h after administration, read-out: brain-to-plasma ratio): > 10
- half-life ([3]; rat, brain, ip, single dose 20 mg/kg i.p., read-out: brain half-life (converted)): 5.6 h
- AUC(0-inf) ([3]; rat, plasma, ip, single dose 20 mg/kg i.p.): 10200 ng·h/mL
- half-life ([3]; rat, plasma, ip, single dose 20 mg/kg i.p., read-out: plasma half-life (converted)): 3.7 h
- clearance rate ([3]; single dose 20 mg/kg i.p.): 32.8 mL/min/kg
- half-life ([4]; brain, read-out: brain half-life (converted)): 2.7 h
- Kp ([4]; brain, read-out: brain-to-plasma ratio): > 6
- half-life ([4]; plasma, read-out: plasma half-life (converted)): 2.7 h
- Kp ([5]; Sprague Dawley (rat), C57BL6 (mouse), mouse, brain, read-out: brain-to-plasma ratio (abstract)): > 5
- half-life ([5]; Sprague Dawley, plasma, read-out: plasma half-life (abstract) (converted)): 5.6 h

Reference: paper PMC10525516, “Novel NADPH Oxidase-2 Inhibitors as Potential Anti-Inflammatory and Neuroprotective Agents” (Antioxidants, 2023)
